Measured values from patent US20240067651A1 (Biohaven Therapeutics Ltd., priority 2019, published 2024).
Values belong to the compound of their own block, whether it stands above or below them.

Tests used:
Plasma Stability = format: in vitro ADME, human
How it was run: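 Compounds incubated at 1 μM in fresh human plasma for 1 hour at 37° C, then protein-precipitated with acetonitrile/formic acid containing internal standard. Remaining parent measured by LC-MS/MS in triplicate, expressed as percent of control remaining.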

[1] = Stability in Simulated Gastric Fluid (SGF); format: in vitro ADME; design: key: % parent compound remaining relative to 0-minute sample
How it was run: (§1)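 Percent parent compound remaining, by LC-MS/MS against the 0-minute sample, is reported after incubation at 2 μg/mL (final) in pepsin-containing SGF at pH 1.2 or pancreatin-containing SIF at pH 6.8. Incubations run at 37° C for up to 60 minutes.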

[2] = Stability in Simulated Intestinal Fluid (SIF); format: in vitro ADME; design: key: % parent compound remaining relative to 0-minute sample
How it was run: as §1

[3] = Caco-2 Permeability Assay; format: in vitro ADME, human; details: human
How it was run: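 Caco-2 monolayers cultured 21 days (TEER >600 […]); test article at 10 μM in HBSS/HEPES pH 7.4 transport medium, dosed apical or basolateral, ±Pgp inhibitor. Incubated 90 min at 37 °C; both compartments quantified by LC-MS/MS. Papp (A→B, B→A), efflux ratio and % recovery calculated.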

[4] = % remaining at 1 h, human plasma, 1 μM, 37° C.
[5] = % remaining at 1 h, SGF with pepsin pH 1.2, 2 μg/mL, 37° C.
[6] = % remaining at 1 h, SIF with pancreatin pH 6.8, 2 μg/mL, 37° C.
[7] = Caco-2, pH 7.4, donor 10 μM, 90 minutes, 37° C., direction not given
[8] = Caco-2, pH 7.4, Caco-2 monolayer
[9] = % remaining at 1 h in human plasma, the 17th table
[10] = % remaining at 1 h in simulated gastric fluid, the 17th table
[11] = % remaining at 1 h in simulated intestinal fluid, the 17th table
[12] = Caco-2, pH 7.4, Caco-2 monolayer, the 17th table
[13] = Caco-2, pH 7.4, no unit printed at the place (tables the 9th table and the 10th table have no head)
[14] = % remaining at 1 h in human plasma
[15] = % remaining at 1 h in simulated gastric fluid
[16] = % remaining at 1 h in simulated intestinal fluid
[17] = simulated gastric fluid, at 1 h
[18] = simulated intestinal fluid, at 1 h
[19] = % @ 1 h (remaining) in human plasma
[20] = % @ 1 h (remaining) in simulated gastric fluid
[21] = % @ 1 h (remaining) in simulated intestinal fluid

Structure (SMILES): COC(=O)[C@H](CCCCN)NC(=O)OCn1ccc2c1c(=O)[nH]c(=S)n2CCOC(C)C.O=C(O)C(F)(F)F [Example 110, trifluoroacetic acid methyl (2S)-6-amino-2-{[{{4-oxo-1-[2-(propan-2-yloxy)ethyl]-2-sulfanylidene-1H,2H,3H,4H,5H-pyrrolo[3,2-d]pyrimidin-5-yl}methoxy)carbonyl]amino}hexanoate]
- human Plasma stability (Plasma Stability; [4]): 62%
- SGF [1, 5]: 81%
- SIF [2, 6]: 45%
- Papp at 90 min, 10 µM [3, 7]: 0.142 ×10⁻⁶ cm/s

Structure (SMILES): CC(=O)OCc1ccccc1N(C)C(=O)OCn1ccc2c1c(=O)nc(S)n2CCOC(C)C [Example 222]
- human Plasma stability (Plasma Stability; [9]): 22% remaining
- SGF [1, 10]: 98% remaining
- SIF [2, 11]: 88% remaining
- Papp at 90 min, 10 µM [3, 12]: 2.05 ×10⁻⁶ cm/s

Structure (SMILES): CC(C)OCCn1c(=S)[nH]c(=O)c2c1ccn2COC(=O)CCNC(=O)[C@@H](N)Cc1c[nH]c2ccccc12.O=C(O)C(F)(F)F [Example 52]
- human Plasma stability (Plasma Stability; [14]): 61% remaining
- SGF [1, 15]: 95% remaining
- SIF [2, 16]: 81% remaining
- Papp at 90 min, 10 µM [3, 8]: 0.23 ×10⁻⁶ cm/s

Structure (SMILES): COC(=O)[C@H](CCCCNC(=O)[C@@H](NC(=O)OC(C)(C)C)C(C)C)NC(=O)OCn1ccc2c1c(=O)[nH]c(=S)n2CCOC(C)C [Example 111, methyl (2S)-6-[(2S)-2-{[(tert-butoxy)carbonyl]amino}-3-methylbutanamido]-2-{[{{4-oxo-1-[2-(propan-2-yloxy)ethyl]-2-sulfanylidene-1H,2H,3H,4H,5H-pyrrolo[3,2-d]pyrimidin-5-yl}methoxy)carbonyl]amino}hexanoate]
- human Plasma stability (Plasma Stability; [4]): 85%
- SGF [1, 5]: 87%
- SIF [2, 6]: 74%
- Papp at 90 min, 10 µM [3, 7]: 0.575 ×10⁻⁶ cm/s

Structure (SMILES): CC(C)OCCn1c(=S)[nH]c(=O)c2c1ccn2COC(=O)CCCCNC(=O)[C@@H](N)Cc1c[nH]c2ccccc12.O=C(O)C(F)(F)F [Example 51]
- human Plasma stability (Plasma Stability; [14]): 2% remaining
- SGF [1, 15]: 94% remaining
- SIF [2, 16]: 83% remaining
- Papp at 90 min, 10 µM [3, 8]: 0.519 ×10⁻⁶ cm/s

Structure (SMILES): CC(C)OCCn1c(=S)[nH]c(=O)c2c1ccn2COC(=O)[C@@H](N)Cc1ccccc1.O=C(O)C(F)(F)F [Example 308, trifluoroacetic acid {4-oxo-1-[2-(propan-2-yloxy)ethyl]-2-sulfanylidene-1H,2H,3H,4H,5H-pyrrolo[3,2-d]pyrimidin-5-yl}methyl (2S)-2-amino-3-phenylpropanoate]
- human Plasma stability (Plasma Stability; % remaining @ 1 h): 2.5% @ 1 h
- SGF ([1]; % remaining @ 1 h): 97% @ 1 h
- SIF ([2]; % remaining @ 1 h): 44% @ 1 h
- Papp at 90 min, 10 µM ([3]; Caco-2, pH 7.4): < 0.364 ×10⁻⁶ cm/s

Structure (SMILES): COC(=O)N1CCCC1C(=O)NCCC(=O)OCn1ccc2c1c(=O)[nH]c(=S)n2CCOC(C)C.O=C(O)C(F)(F)F (stereo not shown) [Example 60]
- human Plasma stability (Plasma Stability; [14]): 37% remaining
- SGF [1, 15]: 99% remaining
- SIF [2, 16]: 88% remaining
- Papp at 90 min, 10 µM [3, 8]: 0.611 ×10⁻⁶ cm/s

Structure (SMILES): C=CCN(C)C(=O)OCSc1nc(=O)c2[nH]ccc2n1CCOC(C)C.O=C(O)C(F)(F)F [Example 177]
- human Plasma stability (Plasma Stability; [19]): 99% @ 1 h
- SGF [1, 20]: 99% @ 1 h
- SIF [2, 21]: 89% @ 1 h
- Papp at 90 min, 10 µM [3, 8]: 15.2 ×10⁻⁶ cm/s

Structure (SMILES): CC(C)C[C@H](N)C(=O)NCCC(=O)OCn1ccc2c1c(=O)[nH]c(=S)n2CCOC(C)C.O=C(O)C(F)(F)F [Example 30]
- human Plasma stability (Plasma Stability; [14]): 40% remaining
- SGF [1, 15]: 93% remaining
- SIF [2, 16]: 67% remaining
- Papp at 90 min, 10 µM [3, 8]: < 0.269 ×10⁻⁶ cm/s

Structure (SMILES): COC(=O)[C@H](CCCCNC(=O)OC(C)(C)C)NC(=O)OCn1ccc2c1c(=O)[nH]c(=S)n2CCOC(C)C [Example 101, methyl (2S)-6-{[(tert-butoxy)carbonyl]amino}-2-{[{{4-oxo-1-[2-(propan-2-yloxy)ethyl]-2-sulfanylidene-1H,2H,3H,4H,5H-pyrrolo[3,2-d]pyrimidin-5-yl}methoxy)carbonyl]amino}hexanoate]
- human Plasma stability (Plasma Stability; [4]): 97%
- SGF [1, 5]: 75%
- SIF [2, 6]: 96%
- Papp at 90 min, 10 µM [3, 13]: 1.46 ×10⁻⁶ cm/s

Structure (SMILES): CC[C@H](C)[C@H](N)C(=O)NCCCCC(=O)OCn1ccc2c1c(=O)[nH]c(=S)n2CCOC(C)C.O=C(O)C(F)(F)F [Example 37]
- human Plasma stability (Plasma Stability; [14]): 1% remaining
- SGF [1, 15]: 88% remaining
- SIF [2, 16]: 89% remaining
- Papp at 90 min, 10 µM [3, 8]: 1.09 ×10⁻⁶ cm/s

Structure (SMILES): CC(C)OCCn1c(=S)[nH]c(=O)c2c1ccn2COC(=O)CCCCNC(=O)C1CCCN1C(=O)OC(C)C.O=C(O)C(F)(F)F (stereo not shown) [Example 67]
- human Plasma stability (Plasma Stability; [14]): 57% remaining
- SGF [1, 15]: 92% remaining
- SIF [2, 16]: 93% remaining
- Papp at 90 min, 10 µM [3, 8]: 2.84 ×10⁻⁶ cm/s

Next, values leading:

- human Plasma stability (Plasma Stability; human plasma, remaining at 1 h): 5% remaining
- SGF ([1]; simulated gastric fluid, remaining at 1 h): 99% remaining
- SIF ([2]; simulated intestinal fluid, remaining at 1 h): 25% remaining
- Papp at 90 min, 10 µM [3, 8]: 11.3 ×10⁻⁶ cm/s
Structure (SMILES): CC(C)OCCn1c(=S)[nH]c(=O)c2c1ccn2COC(=O)CCCOC(=O)[C@H](N)C(C)C [Example 356, trifluoroacetic acid 4-oxo-4-({4-oxo-1-[2-(propan-2-yloxy)ethyl]-2-sulfanylidene-1H,2H,3H,4H,5H-pyrrolo[3,2-d]pyrimidin-5-yl}methoxy)butyl (2R)-2-amino-3-methylbutanoate]

- human Plasma stability (Plasma Stability; [4]): 97%
- SGF [1, 5]: 99%
- SIF [2, 6]: 97%
- Papp at 90 min, 10 µM [3, 13]: 27.7 ×10⁻⁶ cm/s
Structure (SMILES): CC(C)OCCn1c(=S)[nH]c(=O)c2c1ccn2COC(=O)NCC(F)(F)F [Example 100, {4-oxo-1-[2-(propan-2-yloxy)ethyl]-2-sulfanylidene-1H,2H,3H,4H,5H-pyrrolo[3,2-d]pyrimidin-5-yl}methyl N-(2,2,2-trifluoroethyl)carbamate]

- human Plasma stability (Plasma Stability; [4]): 100%
- SGF [1, 5]: 94%
- SIF [2, 6]: 96%
- Papp at 90 min, 10 µM [3, 7]: 0.094 ×10⁻⁶ cm/s
Structure (SMILES): CC(C)OCCn1c(=S)[nH]c(=O)c2c1ccn2COC(=O)N[C@H](C(=O)O)C(C)C [Example 109, (2S)-3-methyl-2-{[({4-oxo-1-[2-(propan-2-yloxy)ethyl]-2-sulfanylidene-1H,2H,3H,4H,5H-pyrrolo[3,2-d]pyrimidin-5-yl}methoxy)carbonyl]amino}butanoic acid]

- human Plasma stability (Plasma Stability; human plasma, at 1 h): 2% remaining
- SGF [1, 17]: 98% remaining
- SIF [2, 18]: 70% remaining
- Papp at 90 min, 10 µM [3, 8]: 0.314 ×10⁻⁶ cm/s
Structure (SMILES): COC(=O)n1ccc2c1c(=O)[nH]c(=S)n2CCOC(C)C [Example 233]

- human Plasma stability (Plasma Stability; [9]): 94% remaining
- SGF [1, 10]: 67% remaining
- SIF [2, 11]: 68% remaining
- Papp at 90 min, 10 µM [3, 12]: 2.54 ×10⁻⁶ cm/s
Structure (SMILES): CC(=O)OCc1ccccc1N(C)C(=O)OC(C)n1ccc2c1c(=O)nc(S)n2CCOC(C)C (stereo not shown) [Example 221]

- human Plasma stability (Plasma Stability; [19]): 0% @ 1 h
- SGF [1, 20]: 99% @ 1 h
- SIF [2, 21]: 1% @ 1 h
- Papp at 90 min, 10 µM [3, 8]: 6.55 ×10⁻⁶ cm/s
Structure (SMILES): CCC(=O)OCn1ccc2c1c(=O)[nH]c(=S)n2CCOC(C)C [Example 156]

- human Plasma stability (Plasma Stability; [4]): 76%
- SGF [1, 5]: 100%
- SIF [2, 6]: 94%
- Papp at 90 min, 10 µM [3, 7]: 0.4 ×10⁻⁶ cm/s
Structure (SMILES): CC(C)OCCn1c(=S)[nH]c(=O)c2c1ccn2COC(=O)CCCCNC(=O)[C@@H](N)C(C)C [Example 12, Trifluoroacetic acid {4-oxo-1-[2-(propan-2-yloxy)ethyl]-2-sulfanylidene-1H,2H,3H,4H,5H-pyrrolo[3,2-d]pyrimidin-5-yl}methyl 5-[(2S)-2-amino-3-methylbutanamido]pentanoate]

- human Plasma stability (Plasma Stability; [19]): 9% @ 1 h
- SGF [1, 20]: 82% @ 1 h
- SIF [2, 21]: 0% @ 1 h
- Papp at 90 min, 10 µM [3, 8]: 4.03 ×10⁻⁶ cm/s
Structure (SMILES): CCCC(=O)OCn1ccc2c1c(=O)[nH]c(=S)n2CCOC(C)C [Example 154]

- human Plasma stability (Plasma Stability; [4]): 0%
- SGF [1, 5]: 98%
- SIF [2, 6]: 17%
- Papp at 90 min, 10 µM [3, 7]: 0.24 ×10⁻⁶ cm/s
Structure (SMILES): CC(C)OCCn1c(=S)[nH]c(=O)c2c1ccn2COC(=O)[C@@H]1CCC(=O)N1 [Example 86, {4-Oxo-1-[2-(propan-2-yloxy)ethyl]-2-sulfanylidene-1H,2H,3H,4H,5H-pyrrolo[3,2-d]pyrimidin-5-yl}methyl(2S)-5-oxopyrrolidine-2-carboxylate]

- human Plasma stability (Plasma Stability; [9]): 89% remaining
- SGF [1, 10]: 83% remaining
- SIF [2, 11]: 100% remaining
- Papp at 90 min, 10 µM [3, 12]: 12.6 ×10⁻⁶ cm/s
Structure (SMILES): CCCCNC(=O)n1ccc2c1c(=O)[nH]c(=S)n2CCOC(C)C [Example 224]

- human Plasma stability (Plasma Stability; human plasma, at 1 h): 0% remaining
- SGF [1, 17]: 100% remaining
- SIF [2, 18]: 40% remaining
- Papp at 90 min, 10 µM [3, 8]: 3.63 ×10⁻⁶ cm/s
Structure (SMILES): CC(C)OCCn1c(=S)[nH]c(=O)c2c1ccn2C(=O)OC(C)C [Example 231]

- human Plasma stability (Plasma Stability; human plasma, at 1 h): 96% remaining
- SGF [1, 17]: 99% remaining
- SIF [2, 18]: 98% remaining
- Papp at 90 min, 10 µM [3, 8]: 23.5 ×10⁻⁶ cm/s
Structure (SMILES): Cc1ccc(N(C)C(=O)OCSc2nc(=O)c3[nH]ccc3n2CCOC(C)C)cc1 [Example 248]

- human Plasma stability (Plasma Stability; [14]): 34% remaining
- SGF [1, 15]: 69% remaining
- SIF [2, 16]: 56% remaining
- Papp at 90 min, 10 µM [3, 8]: 1.19 ×10⁻⁶ cm/s
Structure (SMILES): CC(C)OCCn1c(SCOC(=O)OCCOCCNC(=O)OC(C)(C)C)nc(=O)c2c1ccn2COC(=O)OCCOCCNC(=O)OC(C)(C)C [Example 121]
